≈ marks a conversion by molar mass, not a printed value.

One test deals with Influenza A virus. Put plainly: Cytotoxicity against A/WSN/33 strain (an H1N1 subtype) influenza virus in the plaque reduction assay. In kind it is functional. For orientation: Plaques are areas of infected cells; plaque reduction assays count them against a control.
Test [1] in a line: Inhibitory activity against A/WSN/33 strain (an H1N1 subtype) influenza virus was measured by cell protection assay in MDBK cells. The class given is functional, cell-based, Bos taurus.
The nature of test [2]: Inhibitory activity against A/WSN/33 strain (an H1N1 subtype) influenza virus was measured by cell protection assay in MDBK cells; Not active. In kind it is functional, cell-based, Bos taurus.
The nature of test [3]: Inhibitory activity against A/WSN/33 strain (an H1N1 subtype) influenza virus was measured by cell protection assay in MDBK cells; Value ranges from 0.2-0.3 ug/mL. In kind it is functional, cell-based, Bos taurus.

Usually CC50 stands for the concentration giving 50% cytotoxicity. The low end stands for harm at low concentration, the high end for better tolerance by the cells. For orientation: EC50 means the concentration needed to bring the measured effect to its halfway point. For the molecule `C[C@@H]1CCC[C@@H]2C[C@@H](NC(=O)c3ccccc3N)CCN21`, the CC50 in the test with Influenza A virus was above 100 µg/mL. This molecule also returned an EC50 in test [1] of 5 µg/mL (≈ 17.4 µM).

In the test on Influenza A virus, `C[C@@H]1CCC[C@@H]2C[C@@H](NC(=O)c3cc(C(C)(C)C)ccc3O)CCN21` showed a CC50 of 50 µg/mL (≈ 145 µM). In test [2], the EC50 result is reported as “Not Active”.

In the test on Influenza A virus, `C[C@@H]1CCC[C@@H]2C[C@@H](NC(=O)c3ccccc3O)CCN21` gave a CC50 above 100 µg/mL. Besides, the EC50 in test [1] is 1.6 µg/mL (≈ 5.55 µM).

With `C[C@@H]1CCC[C@@H]2C[C@@H](NC(=O)c3ccc(N)c(Cl)c3)CCN21`, the EC50 entry in test [2] was “Not Active”.

The molecule `C[C@@H]1CCC[C@@H]2C[C@@H](NC(=O)c3cc(Br)ccc3O)CCN21` showed a CC50 in the test on Influenza A virus above 100 µg/mL. In addition, the EC50 in test [1] is 0.8 µg/mL (≈ 2.18 µM).

For `C[C@@H]1CCC[C@@H]2C[C@@H](NC(=O)c3c(O)ccc4ccccc34)CCN21`, the CC50 with Influenza A virus was above 100 µg/mL. Moreover, in test [2], the EC50 entry was “Not Active”.

Turning to `Cc1ccc(C(=O)N[C@H]2CCN3[C@H](CCC[C@H]3C)C2)c(O)c1`, the CC50 in the test on Influenza A virus is above 100 µg/mL. Also, in test [1], the EC50 was 4 µg/mL (≈ 13.2 µM).

On to `COc1ccc(O)c(C(=O)N[C@H]2CCN3[C@H](CCC[C@H]3C)C2)c1`, for which the CC50 in the test with Influenza A virus was 100 µg/mL (≈ 314 µM). The EC50 in test [1] came to 0.6 µg/mL (≈ 1.88 µM).

`C[C@@H]1CCC[C@@H]2C[C@@H](NC(=O)c3cc(I)ccc3O)CCN21` registered a half-maximal cytotoxic concentration (CC50) in the test with Influenza A virus of 100 µg/mL (≈ 241 µM). Also, the EC50 in test [1] came to 1 µg/mL (≈ 2.41 µM).

`C[C@@H]1CCC[C@@H]2C[C@@H](NC(=O)c3cc4c(cc3O)C(C)(C)CCC4(C)C)CCN21`: half-maximal cytotoxicity in the test with Influenza A virus (CC50) was put at 8 µg/mL (≈ 20.1 µM). In test [2], the EC50 result is on record as “Not Active”.

In the test on Influenza A virus, `C[C@@H]1CCC[C@@H]2C[C@@H](NC(=O)c3cc(Cl)ccc3O)CCN21` came in with a CC50 above 100 µg/mL. Moreover, the EC50 in test [1] is 0.8 µg/mL (≈ 2.48 µM).

In the test on Influenza A virus, `C[C@@H]1CCC[C@@H]2C[C@@H](NC(=O)c3cc(N=[N+]=[N-])ccc3O)CCN21` registered a CC50 above 100 µg/mL. Besides, in test [1], the EC50 turned out to be 0.5 µg/mL (≈ 1.52 µM).

In the test with Influenza A virus, `C[C@@H]1CCC[C@@H]2C[C@@H](NC(=O)c3cc(F)ccc3O)CCN21` returned a CC50 above 100 µg/mL. In test [1], this molecule yielded a concentration giving a half-maximal response (EC50) of 0.4 µg/mL (≈ 1.31 µM).

Consider `C[C@@H]1CCC[C@@H]2C[C@@H](NC(=O)c3cc4ccccc4cc3O)CCN21`, for which the CC50 with Influenza A virus is above 100 µg/mL. Also, the EC50 result in test [2] was “Not Active”.

On to `C[C@@H]1CCC[C@@H]2C[C@@H](NC(=O)c3cccc(O)c3O)CCN21`, for which the CC50 in the test on Influenza A virus is 10 µg/mL (≈ 32.9 µM). For the same molecule, the EC50 entry in test [2] was “Not Active”.

In turn, `C[C@@H]1CCC[C@@H]2C[C@@H](NC(=O)c3cc(Cl)cc(Cl)c3O)CCN21` returned a CC50 with Influenza A virus above 100 µg/mL. Further, in test [1], the EC50 is 10 µg/mL (≈ 28 µM).

In the test with Influenza A virus, `C[C@@H]1CCC[C@@H]2C[C@@H](NC(=O)c3cc(C(=O)c4ccccc4)ccc3O)CCN21` had a CC50 above 100 µg/mL. The EC50 result in test [2] is reported as “Not Active”.

Take `C[C@@H]1CCC[C@@H]2C[C@@H](NC(=O)c3cc(C(F)(F)F)ccc3O)CCN21`: in the test on Influenza A virus, the CC50 was above 100 µg/mL. In test [2], the EC50 entry is given as “Not Active”.

In turn, `C[C@@H]1CCC[C@@H]2C[C@@H](NC(=O)c3cc(Cl)c(N)cc3O)CCN21` registered a CC50 with Influenza A virus above 100 µg/mL. Also, the EC50 in test [1] is 1 µg/mL (≈ 2.96 µM).

In turn, `COc1cc(N)c(Cl)cc1C(=O)N[C@H]1CCN2[C@H](CCC[C@H]2C)C1` returned a CC50 in the test with Influenza A virus above 100 µg/mL. Besides, the EC50 entry in test [2] is recorded as “Not Active”.

In the test on Influenza A virus, `C=Cc1ccc(O)c(C(=O)N[C@H]2CCN3[C@H](CCC[C@H]3C)C2)c1` showed a CC50 above 100 µg/mL. Moreover, in test [1], the EC50 was found to be 2 µg/mL (≈ 6.36 µM).

On to `Cc1cccc(C(=O)N[C@H]2CCN3[C@H](CCC[C@H]3C)C2)c1O`, for which, in the test with Influenza A virus, the CC50 is above 100 µg/mL. The EC50 in test [1] came out at 8 µg/mL (≈ 26.5 µM).

In turn, `C[C@@H]1CCC[C@@H]2C[C@@H](NC(=O)c3c(O)cccc3F)CCN21` came in with a CC50 in the test with Influenza A virus above 100 µg/mL. Besides, the EC50 in test [1] amounted to 10 µg/mL (≈ 32.6 µM).

In the test on Influenza A virus, `C[C@@H]1CCC[C@@H]2C[C@@H](NC(=O)c3cc(-c4ccccc4)ccc3O)CCN21` had a 50% cytotoxic concentration (CC50) of 30 µg/mL (≈ 82.3 µM). For the same molecule, the EC50 entry in test [2] is recorded as “Not Active”.

The molecule `CC(=O)Nc1ccccc1C(=O)N[C@H]1CCN2[C@H](CCC[C@H]2C)C1` gave a CC50 with Influenza A virus above 100 µg/mL. In addition, the EC50 result in test [2] is “Not Active”.

In the case of `C[C@@H]1CCC[C@@H]2C[C@@H](NC(=O)c3cc(Cl)c(N=[N+]=[N-])cc3O)CCN21`, the EC50 entry in test [2] is “Not Active”.

`Cc1ccc(O)c(C(=O)N[C@H]2CCN3[C@H](CCC[C@H]3C)C2)c1` returned a CC50 in the test with Influenza A virus of 100 µg/mL (≈ 331 µM). The EC50 in test [3] was 0.2 µg/mL (≈ 0.661 µM).

`C[C@@H]1CCC[C@@H]2C[C@@H](NC(=O)c3ccc(N)cc3O)CCN21` came in with a CC50 in the test on Influenza A virus above 100 µg/mL. The EC50 result in test [2] is reported as “Not Active”.

Take `C[C@@H]1CCC[C@@H]2C[C@@H](NC(=O)c3cc(O)ccc3O)CCN21`: in the test on Influenza A virus, it took 50 µg/mL (≈ 164 µM) to reach half-maximal cytotoxicity (CC50). The EC50 entry in test [2] is listed as “Not Active”.

The values above are taken from ChEMBL document CHEMBL1131816, “Novel quinolizidine salicylamide influenza fusion inhibitors” (Bioorg Med Chem Lett, 1999).
